Results on 8 compounds are retold here after PubChem BioAssay (NCI).

Values joined by “and” are separate entries in the source; they are usually repeats but may differ in a detail not shown here. Equal values may be shown once.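 Briefly, cells in 96-well plates were exposed to five compound concentrations for 48 h, and endpoints were estimated by linear interpolation. GI50 marks 50% less growth. The concentration for full growth arrest is given as TGI.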

Test systems include COLO 205 colon; OVCAR-3 ovarian; HL-60(TB) leukemia; MDA-MB-435; NCI-H460 lung; EKVX NSCLC; SNB-19 CNS; MALME-3M melanoma; SK-OV-3 ovarian; HT29 colon.
Holding throughout (test): NCI anticancer screen, dose series, 48 h

For the compound `COc1ccc(-c2nn(-c3cccc(Cl)c3)cc2C2CC(c3ccccc3)=NN2C(C)=O)cc1` (configuration not stated), the GI50 was > 100 µM in the test on COLO 205 colon; 5.42 µM in the test on OVCAR-3 ovarian; > 100 µM with HL-60(TB) leukemia; > 100 µM in the test on MDA-MB-435; 4.17 µM in the test on NCI-H460 lung; 8.75 µM in the test with EKVX NSCLC. Also, the GI50 with SNB-19 CNS is 17 µM; in the test on MALME-3M melanoma it was 4.87 µM; with SK-OV-3 ovarian it was 6.85 µM; in the test with HT29 colon, 5.49 µM. The TGI in the test on COLO 205 colon is > 100 µM; with OVCAR-3 ovarian, 45.1 µM; in the test with HL-60(TB) leukemia, > 100 µM; in the test with MDA-MB-435 it was > 100 µM; in the test with NCI-H460 lung it was > 100 µM; in the test with EKVX NSCLC, > 100 µM. Moreover, the TGI in the test on SNB-19 CNS was > 100 µM; in the test with MALME-3M melanoma, 35.2 µM; in the test with SK-OV-3 ovarian, 43.2 µM; in the test with HT29 colon, > 100 µM.

Take `COc1cccc(/C=C/C(=O)c2cc3c(N)c(C(=O)Nc4ccccc4C)sc3nc2C)c1`: the GI50 in the test on COLO 205 colon was 2.02 µM; in the test with OVCAR-3 ovarian it was 1.13 µM; in the test with HL-60(TB) leukemia, 1.1 µM; in the test with MDA-MB-435, 1.07 µM; with NCI-H460 lung, 1.1 µM; in the test on EKVX NSCLC, 1.84 µM. The GI50 was 1.07 µM with SNB-19 CNS, 2.29 µM in the test on MALME-3M melanoma, 5.03 µM in the test with SK-OV-3 ovarian and 1.11 µM in the test on HT29 colon. For the same compound, the TGI in the test with COLO 205 colon is 7.61 µM; in the test on OVCAR-3 ovarian, 2.44 µM; in the test on HL-60(TB) leukemia, 2.63 µM; in the test with MDA-MB-435, 2.77 µM; in the test with NCI-H460 lung, 2.53 µM; with EKVX NSCLC, 10.8 µM. Also, the TGI in the test on SNB-19 CNS worked out at 2.68 µM; in the test on MALME-3M melanoma, 12.6 µM; with SK-OV-3 ovarian, 38.8 µM; with HT29 colon, 2.58 µM.

Regarding `CC(=O)Nc1cccc(-n2c(=O)n(C3CC3)c(=O)c3c(Nc4ccc(I)cc4F)n(C)c(=O)c(C)c32)c1`, the GI50 with COLO 205 colon is < 0.01 µM and 0.00125 µM; in the test on OVCAR-3 ovarian it was 8.33 µM and > 10 µM; with HL-60(TB) leukemia, < 0.01 µM and 0.00141 µM; with MDA-MB-435, < 0.01 µM and 0.00313 µM; in the test with NCI-H460 lung it was 3.19 µM and > 4.26 µM; in the test on EKVX NSCLC, 0.0135 µM and 0.0443 µM. For the same compound, the GI50 in the test on SNB-19 CNS was 5.11 µM and > 2.09 µM; in the test on MALME-3M melanoma, < 0.01 µM and 0.00164 µM; in the test with SK-OV-3 ovarian, 8.58 µM; in the test with HT29 colon, < 0.01 µM and 0.00172 µM. The TGI in the test with OVCAR-3 ovarian was 60.9 µM and > 10 µM; with HL-60(TB) leukemia it was > 41.7 µM; with MDA-MB-435 it was 25 µM and > 10 µM; in the test with NCI-H460 lung, > 93.6 µM; with EKVX NSCLC it was > 71 µM; with SNB-19 CNS it was > 100 µM. For the same compound, the TGI was < 0.01 µM with MALME-3M melanoma; > 85.4 µM in the test with SK-OV-3 ovarian; 15.9 µM and > 10 µM with HT29 colon.

On to `O=c1cc(-c2cccc(F)c2)[nH]c2cc3c(cc12)OCO3`, for which the TGI in the test with COLO 205 colon is 0.364 µM; in the test with MDA-MB-435, 0.0211 µM; in the test with NCI-H460 lung, 4.31 µM and 22.7 µM; in the test on EKVX NSCLC, > 100 µM; in the test on SNB-19 CNS, 75 µM and > 45.3 µM; with MALME-3M melanoma, > 72 µM. For the same compound, the TGI in the test on SK-OV-3 ovarian was 1.01 µM and 1.03 µM; in the test on HT29 colon, 3.23 µM and 0.705 µM. For the same compound, the GI50 in the test on OVCAR-3 ovarian was 0.291 µM; in the test with HL-60(TB) leukemia, 0.201 µM; in the test on NCI-H460 lung, 0.257 µM; with SNB-19 CNS it was 0.324 µM; in the test with SK-OV-3 ovarian it was 0.265 µM; with HT29 colon it was 0.69 µM and 0.172 µM.

For the compound `NC(CO)Cc1cnc[nH]1` (configuration not stated), the GI50 in the test on COLO 205 colon, in the test on OVCAR-3 ovarian, in the test with HL-60(TB) leukemia, in the test on MDA-MB-435, with NCI-H460 lung and in the test with EKVX NSCLC was > 100 µM throughout. Further, the GI50 in the test on SNB-19 CNS, in the test on MALME-3M melanoma, with SK-OV-3 ovarian and in the test with HT29 colon was > 100 µM throughout. The TGI with COLO 205 colon, in the test on OVCAR-3 ovarian, with HL-60(TB) leukemia, in the test on MDA-MB-435, in the test with NCI-H460 lung and with EKVX NSCLC was > 100 µM throughout. Further, the TGI in the test with SNB-19 CNS, with MALME-3M melanoma, in the test with SK-OV-3 ovarian and with HT29 colon was > 100 µM in each case.

Regarding `Cc1ccc2c(C(C[N+](=O)[O-])c3cccs3)c(-c3ccccc3)[nH]c2c1` (configuration not stated), the GI50 in the test with COLO 205 colon is 2.46 µM; with OVCAR-3 ovarian, 1.24 µM; with HL-60(TB) leukemia, 1.14 µM; in the test with MDA-MB-435, 0.822 µM; in the test on NCI-H460 lung, 1.38 µM; with EKVX NSCLC, 2 µM. The GI50 in the test with SNB-19 CNS was 1.72 µM; in the test on MALME-3M melanoma, 1.55 µM; in the test on SK-OV-3 ovarian it was 3.44 µM; in the test on HT29 colon it was 1.3 µM. In addition, the TGI in the test on COLO 205 colon came to 12.6 µM; in the test with OVCAR-3 ovarian, 4.75 µM; in the test on HL-60(TB) leukemia, 14.6 µM; in the test on MDA-MB-435, 2.14 µM; in the test on NCI-H460 lung, 6.14 µM; with EKVX NSCLC, 14.9 µM. Further, the TGI with SNB-19 CNS was 7.05 µM; with MALME-3M melanoma it was 6.12 µM; in the test on SK-OV-3 ovarian, 19.7 µM; in the test on HT29 colon, 6.54 µM.

Regarding `N#Cc1c(NC(=O)c2cccc(C(F)(F)F)c2)sc2c1CCC(=O)C2`, the GI50 is 0.289 µM in the test on COLO 205 colon; 0.418 µM in the test with OVCAR-3 ovarian; 0.576 µM with HL-60(TB) leukemia; 0.651 µM in the test with MDA-MB-435; 1.19 µM in the test on NCI-H460 lung; 1.67 µM with EKVX NSCLC. Further, the GI50 in the test with SNB-19 CNS is 0.445 µM; in the test on MALME-3M melanoma, 0.326 µM; in the test with SK-OV-3 ovarian, 2.3 µM; in the test on HT29 colon, 0.367 µM. The TGI in the test with COLO 205 colon was found to be 0.809 µM; in the test with OVCAR-3 ovarian it was 1.52 µM; in the test on HL-60(TB) leukemia, 3.56 µM; in the test with MDA-MB-435, 2.11 µM; with EKVX NSCLC it was 4.26 µM; in the test on SNB-19 CNS it was 2.36 µM. For the same compound, the values for the TGI with MALME-3M melanoma, in the test with SK-OV-3 ovarian and in the test with HT29 colon were 1.12 µM, 6.19 µM and 2.47 µM, respectively.

As to `Fc1cccc(COc2ccc(Nc3ncncc3C#Cc3ccccc3)cc2Cl)c1`, the GI50 in the test with COLO 205 colon is > 25 µM; in the test on OVCAR-3 ovarian, > 25 µM; with HL-60(TB) leukemia, > 25 µM; in the test with MDA-MB-435, > 25 µM; with NCI-H460 lung, > 25 µM; in the test with EKVX NSCLC, 8.26 µM. Moreover, the GI50 in the test on SNB-19 CNS, in the test on MALME-3M melanoma, in the test on SK-OV-3 ovarian and in the test on HT29 colon was > 25 µM throughout. Further, the TGI with COLO 205 colon, in the test on OVCAR-3 ovarian, in the test with HL-60(TB) leukemia, in the test on MDA-MB-435, in the test with NCI-H460 lung and in the test with EKVX NSCLC was > 25 µM each time. Also, the TGI in the test on SNB-19 CNS, in the test with MALME-3M melanoma, in the test on SK-OV-3 ovarian and in the test on HT29 colon was > 25 µM throughout.
